Experimental data: PubChem BioAssay (NCI)
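Five compound concentrations were applied to cells in 96-well plates for 48 hours; endpoints were derived by simple linear interpolation of the resulting dose-response curve. At the TGI there is no net growth.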

How the values were obtained:
Assay in all cases: growth of human tumour cells (NCI), 48 h
T-47D breast = system: T-47D breast
KM12 colon = system: KM12 colon
LOX IMVI melanoma = system: LOX IMVI melanoma
HCT-116 colon = system: HCT-116 colon
RXF 393 renal = system: RXF 393 renal
BT-549 breast = system: BT-549 breast
HT29 colon = system: HT29 colon
SN12C renal = system: SN12C renal
COLO 205 colon = system: COLO 205 colon
RPMI-8226 leukemia = system: RPMI-8226 leukemia
786-0 renal = system: 786-0 renal
NCI-H522 lung = system: NCI-H522 lung
HCT-15 colon = system: HCT-15 colon
ACHN renal = system: ACHN renal
SK-MEL-2 melanoma = system: SK-MEL-2 melanoma
MDA-MB-231 breast = system: MDA-MB-231 breast
MDA-N = system: MDA-N
SNB-19 CNS = system: SNB-19 CNS
DU-145 prostate = system: DU-145 prostate
CCRF-CEM leukemia = system: CCRF-CEM leukemia
NCI-H226 lung = system: NCI-H226 lung
A498 renal = system: A498 renal
MCF7 breast = system: MCF7 breast
UO-31 renal = system: UO-31 renal
NCI-H23 lung = system: NCI-H23 lung
SF-268 CNS = system: SF-268 CNS
HCC-2998 colon = system: HCC-2998 colon
U251 CNS = system: U251 CNS
HL-60(TB) leukemia = system: HL-60(TB) leukemia
OVCAR-4 ovarian = system: OVCAR-4 ovarian
MALME-3M melanoma = system: MALME-3M melanoma
HOP-92 NSCLC = system: HOP-92 NSCLC
NCI/ADR-RES ovarian = system: NCI/ADR-RES ovarian
A549 NSCLC = system: A549 NSCLC
UACC-62 melanoma = system: UACC-62 melanoma
IGROV1 ovarian = system: IGROV1 ovarian
PC-3 prostate = system: PC-3 prostate
M14 melanoma = system: M14 melanoma
SF-539 CNS = system: SF-539 CNS
MDA-MB-435 = system: MDA-MB-435
HOP-62 NSCLC = system: HOP-62 NSCLC
SNB-75 CNS = system: SNB-75 CNS
OVCAR-5 ovarian = system: OVCAR-5 ovarian
OVCAR-8 ovarian = system: OVCAR-8 ovarian
NCI-H460 lung = system: NCI-H460 lung
EKVX NSCLC = system: EKVX NSCLC
SK-MEL-28 melanoma = system: SK-MEL-28 melanoma
TK-10 renal = system: TK-10 renal
SK-MEL-5 melanoma = system: SK-MEL-5 melanoma
SF-295 CNS = system: SF-295 CNS
OVCAR-3 ovarian = system: OVCAR-3 ovarian
SR leukemia = system: SR leukemia
K-562 leukemia = system: K-562 leukemia
SW-620 colon = system: SW-620 colon
HS 578T breast = system: HS 578T breast
UACC-257 melanoma = system: UACC-257 melanoma
CAKI-1 renal = system: CAKI-1 renal
SK-OV-3 ovarian = system: SK-OV-3 ovarian
MOLT-4 leukemia = system: MOLT-4 leukemia

Measured: TGI

O=c1[nH]nc(Nc2ccc(Cl)cc2)c2nnn(C3CCCCC3)c12
43.3 µM: LOX IMVI melanoma | SR leukemia
66 µM: HOP-92 NSCLC
45.2 µM: MDA-MB-231 breast
34.3 µM: OVCAR-8 ovarian
91 µM: U251 CNS
81.7 µM: NCI-H522 lung
51.8 µM: CAKI-1 renal
43.1 µM: OVCAR-4 ovarian
92.8 µM: RXF 393 renal
31.4 µM: 786-0 renal
not listed: SK-OV-3 ovarian | MOLT-4 leukemia
> 100 µM: all other assays above

Cc1n[nH]c(=O)n1-n1cccc1
not listed: HL-60(TB) leukemia
> 100 µM: all other assays above

OCCN1CCN(c2nc(N3CCCC3)c3nc(Cl)c(NCc4ccccc4)nc3n2)CC1
6.73 µM: COLO 205 colon
8.35 µM: RPMI-8226 leukemia
15.8 µM: KM12 colon
4.23 µM: 786-0 renal
11.5 µM: UO-31 renal
21.3 µM: SNB-19 CNS
9.08 µM: SK-MEL-28 melanoma
7.91 µM: HCT-15 colon
31 µM: HS 578T breast
23.7 µM: CAKI-1 renal
20.7 µM: BT-549 breast | ACHN renal
27.5 µM: SK-OV-3 ovarian
9.79 µM: UACC-257 melanoma
18.2 µM: U251 CNS
15.3 µM: MOLT-4 leukemia
10.7 µM: MDA-MB-435
18.7 µM: NCI-H522 lung
7.82 µM: SK-MEL-5 melanoma
37.8 µM: NCI-H226 lung
9.26 µM: UACC-62 melanoma
17.5 µM: SW-620 colon
17.4 µM: T-47D breast
11.7 µM: CCRF-CEM leukemia | MALME-3M melanoma
23.2 µM: SF-268 CNS
26.7 µM: NCI/ADR-RES ovarian
11.8 µM: HL-60(TB) leukemia
8.67 µM: SNB-75 CNS
26.6 µM: OVCAR-5 ovarian
22 µM: K-562 leukemia
17.6 µM: HCT-116 colon
13.6 µM: SF-539 CNS
3.68 µM: RXF 393 renal
15.2 µM: SR leukemia
24.2 µM: SN12C renal
23.5 µM: OVCAR-8 ovarian | OVCAR-3 ovarian
23.6 µM: DU-145 prostate
23.1 µM: IGROV1 ovarian
8.47 µM: MDA-N
21.4 µM: A549 NSCLC
17.2 µM: MCF7 breast
29.4 µM: NCI-H23 lung
19.2 µM: TK-10 renal
10.6 µM: LOX IMVI melanoma | HT29 colon
22.8 µM: PC-3 prostate
3.56 µM: HCC-2998 colon
18.1 µM: NCI-H460 lung
8.98 µM: HOP-62 NSCLC
7.24 µM: M14 melanoma
16.8 µM: SK-MEL-2 melanoma | HOP-92 NSCLC
13.4 µM: SF-295 CNS
25.4 µM: OVCAR-4 ovarian
25 µM: all other assays above

CC(C)(C)C(=O)c1c(O)c2ccccc2c2ccccc2c1=O
91.6 µM: BT-549 breast
not listed: RXF 393 renal | RPMI-8226 leukemia | HCC-2998 colon | MALME-3M melanoma | NCI/ADR-RES ovarian | IGROV1 ovarian | SR leukemia | K-562 leukemia
> 100 µM: all other assays above
